This is an account of results in patent US9783519B2, “Palladium/silver co-catalyzed tandem reactions synthesis of phenylacetophenone derivatives by oxabenzonorbornadienes with terminal alkynes and their anti-tumor or anti-cancer activities” (Hong Kong Baptist University, priority 2015, dated 2017).

Series [1] concerns KYSE-150 (human oesophagus carcinoma). In words: MTT cytotoxicity assay, KYSE-150. The series is classed as cell-based. The conditions noted are these: 48 hrs treatment. The procedure: (§1) Cytotoxic activities of all compounds were evaluated by MTT assay using KYSE-150 (human oesophagus carcinoma), MKN-45 (human gastric aednocarcinoma), DLD-1 (human colorectal carcinoma cell line), Hep G2 (human hepatocellular carcinoma). […] 3ag, 3al, 3an, 3ea and 3ha also have the same inhibitory effect on different cell lines with IC50 value lower than 10 μM. Thus, except 3ac, 3ad, 3ae, 3ah, and 3ab, the other compounds all exert definitely anti-cancer effect.
(§2) In this study, all compounds were dissolved in dimethyl sulfoxide (DMSO) to make stock solutions and further diluted in culture medium for this experiment. Human cancer cell lines, including one gastric adenocarcinoma cell line (MKN-45), one colon carcinoma cell line (DLD-1), one esophageal carcinoma cell line (KYSE-150) and one hepatocellular carcinoma cell line (HepG2) were cultured in RPMI 1640 or DMEM medium, containing 10% fetal bovine serum and 1% antibiotics (Penicillin and strep). The cell lines were cultured at 37° C. in a humidified environment containing 5% CO2. To determine the effects of the compounds on cell viability, a standard colorimetric 3-(4,5-dimethylthiazol-2-yl)-2,5-diphenyltetrazolium bromide (MTT) assay was used to test the cell number. Cells were seeded in a 96-well plate (4×10^3 cells/well) and allowed to attach overnight. After the recovery, cells were treated with 1.56, 3.125, 6.25, 12.5, 25, 50 μM of compounds in culture medium for 48 hrs. Then, 20 μL of MTT (5 mg/mL stock in PBS) per well was added into the medium (200 μL) and incubated for 4 hrs at 37° C. Finally, the culture medium was removed and 200 μL of DMSO were added to dissolve the purple formazan crystals. Absorbance of the solution was measured using microplate reader spectrophotometer (Bio-Rad Laboratories, Inc., Hercules, Calif.) at a wavelength of 570 nm.

Series [2] deals with MKN-45 (human gastric aednocarcinoma). In words: MTT cytotoxicity assay, MKN-45. The series is classed as cell-based. To be noted: 48 hrs treatment. How it is done: as §1, §2
Series [3] relates to Hep G2 (human hepatocellular carcinoma). In words: MTT cytotoxicity assay, Hep G2. To be noted: HepG2, 48 hrs treatment. The series is classed as cell-based. How it is done:
as §1, §2
(Tetrazolium assays rely on reduction of a dye to a coloured formazan, in cell work by metabolically active cells.)

Series [4] relates to DLD-1 (human colorectal carcinoma cell line). In words: MTT cytotoxicity assay, DLD-1. The series is classed as cell-based. To be noted: 48 hrs treatment. The procedure: as §1, §2
For series [5], the system named is KYSE-150 cells. In words: Wound healing assay. The series is classed as cell-based, human. To be noted: 10 μM, 48 h. How it is done:
Original magnification, 5×.
Further, wound-healing assay was used to test whether those novel compounds could affect cell motility.
A wound-healing assay was performed as follows: cells were seeded in 12 wells plate at 50% confluence in completed medium. After 24 hrs seeding, the monolayer was wounded by scoring with a sterile plastic tip (1 mL), then washed several times with medium to remove cell debris and then incubated in conditioned medium in the absence or presence of tested compounds for various periods of time up to 48 h. […] Cell migration into the wound surface was monitored by Olympus IX71 microscopy and digitally photographed.

For series [6], the system named is KYSE-150, MKN-45, DLD-1, Hep G2. The series can be described thus: MTT cytotoxicity assay, summary over the test cell lines. The series is classed as cell-based. To be noted: Homo sapiens; on different (not all) cell lines; summary of Table 6; read-out: IC50, inhibitory effect on different cell lines. How it is done: as §1, §2
Series [7] concerns KYSE-150 cells. The series can be described thus: Wound healing assay. Format: cell-based, human. To be noted: 10 μM.

For orientation: IC50 means the concentration that inhibits the measured activity by half. In general, melting point refers to the temperature, or range, at which the solid turns liquid.

The compound `O=C(Cc1ccc2cc(Br)c(Br)cc2c1)c1ccccc1` [Compound 3ea, 2-(6,7-dibromonaphthalen-2-yl)-1-phenylethanone] came in with a melting point of 152 to 154 °C. In series [1], this compound yielded an IC50 of 2.38 µM. In series [2], the IC50 stood at 12.1 µM. Further, the IC50 in series [3] came to 16.1 µM. This compound showed an IC50 in series [4] of 2.7 µM. Besides, the “cell migration into the wound” value with KYSE-150 cells [5] was “did not migrate into the wound”. Also, in series [6], the IC50 was < 10 µM. Further, the “viability of KYSE-150 cells compared to controls” value in the series with KYSE-150 cells [7] is given as “did not alter the viability”.
